What follows are compounds tested against T1, ERα (Homo sapiens, UniProt P03372) (assay: Estrogen receptor-alpha (ERα) degradation assay in MCF7 cells using In-Cell Western assay). Details: ER-alpha degradation in MCF7 cells, 5 days of incubation.
T1 sequence (P03372 1-595): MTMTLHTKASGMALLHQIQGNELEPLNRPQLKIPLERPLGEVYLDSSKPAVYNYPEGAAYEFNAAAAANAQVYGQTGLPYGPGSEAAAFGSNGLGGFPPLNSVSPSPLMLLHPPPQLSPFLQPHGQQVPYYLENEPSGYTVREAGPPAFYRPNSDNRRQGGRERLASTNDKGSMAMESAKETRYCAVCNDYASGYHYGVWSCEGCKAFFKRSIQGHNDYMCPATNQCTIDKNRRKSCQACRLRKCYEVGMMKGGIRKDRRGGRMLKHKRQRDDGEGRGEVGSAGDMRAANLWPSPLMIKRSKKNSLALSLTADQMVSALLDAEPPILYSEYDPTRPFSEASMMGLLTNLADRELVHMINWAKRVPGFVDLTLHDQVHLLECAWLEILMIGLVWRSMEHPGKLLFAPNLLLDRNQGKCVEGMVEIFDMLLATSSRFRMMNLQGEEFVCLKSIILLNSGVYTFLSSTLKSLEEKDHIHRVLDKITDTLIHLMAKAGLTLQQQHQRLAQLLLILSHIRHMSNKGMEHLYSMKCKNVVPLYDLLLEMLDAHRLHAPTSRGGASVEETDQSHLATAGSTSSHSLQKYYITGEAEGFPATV
Format: cell-based
Set-up: assessed for their activity in degrading ERα in MCF-7 cells via western blot; endogenous in cells; host or cells: MCF7 cells
Description: Estrogen Receptor-Alpha (ERα) Degradation Assay Using in-Cell Western™ Assay for Table 5.
Degradation of ERα by claimed compounds were determined in MCF7 cells using an In-Cell Western™ assay. Briefly, MCF7 cells were plated in 96-well plates (2000 cells per well in 100 μl media) and incubated at 37° C. under an atmosphere of 5% CO2 in a humidified incubator overnight. One-hundred (100) μI of media containing test compound (at 2x concentration) was added to the appropriate wells to provide 11 serially decreasing concentrations (top final concentration, 1 μM then 3-fold less for the next 10 concentrations); a vehicle control (DMSO) was also added for each compound. For each experiment, all compounds were assayed on duplicate plates. Cells were then incubated for 3 or 5 days in the above-mentioned environment. The assay was terminated by removal of media, a single wash with ice-cold PBS and the addition of 50 μl paraformaldehyde (PFA: 4% in PBS). After 15 minutes in PFA at room temperature, the cells were permeabilized in Tris-phosphate-buffered saline with Tween (0.1%) (TBST) supplemented with Triton X-100 (0.5%) for 15 minutes. Cells were then blocked in BSA (TBST with BSA, 3%) for one hour. Primary antibodies for the detection of ERa (rabbit monoclonal, 1:1000, Cell Signaling Technology Catalog #8644) and tubulin (mouse monoclonal, 1:5000, Sigma Catalog #T6074) in TBST with BSA (3%) were added. The cells were incubated overnight at 4° C. The cells were then washed thrice with TBST at room temperature and then incubated with anti-rabbit and anti-mouse fluorescently-labelled secondary antibodies (IRDye®; LI-COR; Lincoln, Nebr.) in LI-COR blocking buffer (Catalog #927-50000) for one hour at room temperature. Following 3 washes with TBST, the buffer was removed and the plates were read on an Odyssey® infrared imaging system (LI-COR®, Lincoln, Nebr.) at 700 nm and 800 nm. Using commercial software (ImageStudio™; LI-COR, Lincoln, Nebr.), the staining intensity for ERa and tubulin in each well was quantified and exported for analysis. For each data point, ERa intensity was normalized to tubulin intensity and for each compound all normalized intensity values were normalized to the vehicle control. DC50 and Dmax values were determined following a 4-parameter IC50 curve fit using ACAS dose response module (McNeil & Co Inc.).

DC50 [nM]	Dmax [%]	SMILES
< 1	> 75	COc1ccc(-c2sc3cc(O)ccc3c2Oc2ccc(OCCN3CCN(CCCNc4ccc5c(c4)CN(C4CCC(=O)NC4=O)C5=O)CC3)cc2)cc1 (stereo not shown) [Compound 180, 3-[5-[3-[4-[2-[4-[6-hydroxy-2-(4-methoxyphenyl)benzothiophen-3-yl]oxyphenoxy]ethyl]piperazin-1-yl]propylamino]-1-oxo-isoindolin-2-yl]piperidine-2,6-dione]
1 to 10	> 75	O=C1CCC(N2C(=O)c3ccc(NCCCN4CCN(CCOc5ccc(Oc6c(-c7ccc(Br)cc7)sc7cc(O)ccc67)cc5)CC4)cc3C2=O)C(=O)N1 (stereo not shown) [Compound 177, 5-[3-[4-[2-[4-[2-(4-bromophenyl)-6-hydroxy-benzothiophen-3-yl]oxyphenoxy]ethyl]piperazin-1-yl]propylamino]-2-(2,6-dioxo-3-piperidyl)isoindoline-1,3-dione]
10 to 100	> 75	O=C1CCC(N2Cc3nc(N4CCN(CC5CCN(c6ccc(Oc7c(-c8ccc(Br)cc8)sc8cc(O)ccc78)cc6F)CC5)CC4)ccc3C2=O)C(=O)N1 (stereo not shown) [Compound 239]
1 to 10	50 to 75	O=C1CCC(N2Cc3cc(N4CCN(CC5CCN(c6ccc(Oc7c(-c8ccc(O)cc8)sc8cc(O)ccc78)cc6)CC5)CC4)ccc3C2=O)C(=O)N1 (stereo not shown) [Compound 244, 3-[5-[4-[[1-[4-(6-hydroxy-2-(4-hydroxyphenyl)benzothiophen-3-yl]oxyphenyl]-4-piperidyl]methyl]piperazin-1-yl]-1-oxo-isoindolin-2-yl]piperidine-2,6-dione]
1 to 10	50 to 75	O=C1CCC(N2Cc3cc(NCCCOCCCOCCCOc4ccc(Oc5c(-c6ccc(Br)cc6)sc6cc(O)ccc56)cc4)ccc3C2=O)C(=O)N1 (stereo not shown) [Compound 94, 3-[5-[3-[3-[3-[4-[2-(4-bromophenyl)-6-hydroxy-benzothiophen-3-yl]oxyphenoxy]propoxy]propoxy]propylamino]-1-oxo-isoindolin-2-yl]piperidine-2,6-dione]
–	< 50	O=C1CCC(N2Cc3cc(NCCCOCCOCCOc4ccc(Oc5c(-c6ccc(Br)cc6)sc6cc(O)ccc56)cc4)ccc3C2=O)C(=O)N1 (stereo not shown) [Compound 95, 3-[5-[3-[2-[2-[4[2-(4-bromophenyl)-6-hydroxy-benzothiophen-3-yl]oxyphenoxy]ethoxy]ethoxy]propylamino]-1-oxo-isoindolin-2-yl]piperidine-2,6-dione]

What follows are compounds tested against T1, ERα (assay: ERE luciferase reporter gene assay in T47D-KBluc cells (target engagement)). Details: 10% FBS, 24 hours, Table 1 cereblon centric PROTACs, read-out: ER-α Luciferase IC50.
Format: cell-based
Set-up: T47D human breast cancer cells stably transfected with estrogen responsive element/promoter/luciferase reporter gene; host or cells: T47D-KBluc cells
In short: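 PROTACs were tested at 12 concentrations from 300 nM down to 2 pM in 3-fold steps for 24 h on T47D-KBluc cells with a stable ERE-driven luciferase. Medium was RPMI with 10% FBS, measured at 10 pM estrogen. IC50 came from luminescence after lysis, in duplicate.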

IC50 [nM]	SMILES
39.9	O=C1CCC(N2C(=O)c3cccc(NCCOCCOCCOCCOCCOc4ccc(Oc5c(-c6ccc(Br)cc6)sc6cc(O)ccc56)cc4)c3C2=O)C(=O)N1 (stereo not shown) [Compound 20]
8.5	O=C1CCC(N2C(=O)c3ccc(NCCC4CCN(CCOc5ccc(Oc6c(-c7ccc(Br)cc7)sc7cc(O)ccc67)cc5)CC4)cc3C2=O)C(=O)N1 (stereo not shown) [Compound 62]
2.6	C[C@H](COc1ccc(Oc2c(-c3ccc(Br)cc3)sc3cc(O)ccc23)cc1)N1CCN(CC(=O)NCc2ccc3c(c2)CN(C2CCC(=O)NC2=O)C3=O)CC1 (stereo partly drawn) [Compound 11, 2-{4-[(2R)-1-(4-{[2-(4-bromophenyl)-6-hydroxy-1-benzothiophen-3-yl]oxy}phenoxy)propan-2-yl]piperazin-1-yl}-N-{[2-(2,6-dioxopiperidin-3-yl)-1-oxo-2,3-dihydro-1H-isoindol-5-yl]methyl}acetamide]
1.7	C[C@@H](COc1ccc(Oc2c(-c3ccc(Br)cc3)sc3cc(O)ccc23)cc1)N1CCN(CCOc2cccc3c2CN(C2CCC(=O)NC2=O)C3=O)CC1 (stereo partly shown) [Compound 15]
27.8	O=C1CCC(N2C(=O)c3ccc(OCCCOCCOCCOc4ccc(Oc5c(-c6ccc(Br)cc6)sc6cc(O)ccc56)cc4)cc3C2=O)C(=O)N1 (stereo not shown) [Compound 79]
2.5	C[C@@H](COc1ccc(Oc2c(-c3ccc(Br)cc3)sc3cc(O)ccc23)cc1)N1CCN(CC(=O)NCc2ccc3c(c2)CN(C2CCC(=O)NC2=O)C3=O)CC1 (stereo partly shown) [Compound 12]
17.4	O=C1CCC(N2Cc3c(OCCOCCOCCOCCOc4ccc(Oc5c(-c6ccc(Br)cc6)sc6cc(O)ccc56)cc4)cccc3C2=O)C(=O)N1 (stereo not shown) [Compound 21]
5.8	O=C1CCC(N2C(=O)c3ccc(OCCOCCOc4ccc(Oc5c(-c6ccc(Br)cc6)sc6cc(O)ccc56)cc4)cc3C2=O)C(=O)N1 (stereo not shown) [Compound 66]
6.5	O=C1CCC(N2Cc3cc(OCCCOCCCOCCOc4ccc(Oc5c(-c6ccc(Br)cc6)sc6cc(O)ccc56)cc4)ccc3C2=O)C(=O)N1 (stereo not shown) [Compound 45]
37.4	O=C1CCC(N2C(=O)c3ccc(OCCCOCCCOCCCOc4ccc(Oc5c(-c6ccc(Br)cc6)sc6cc(O)ccc56)cc4)cc3C2=O)C(=O)N1 (stereo not shown) [Compound 80]

Same assay, conditions: 10% FBS, 24 hours, Table 2 VHL centric PROTACs, read-out: IC50

IC50 [nM]	SMILES
4.1	Cc1ncoc1-c1ccc([C@H](C)NC(=O)[C@@H]2C[C@@H](O)CN2C(=O)[C@@H](NC(=O)COCCOCCOCCOc2ccc(Oc3c(-c4ccc(Cl)cc4)sc4cc(O)ccc34)cc2)C(C)(C)C)cc1 [Compound 120]
> 100	Cc1ncsc1-c1ccc(CNC(=O)[C@@H]2C[C@@H](O)CN2C(=O)[C@@H](NC(=O)CCC(=O)N2CC3CN(CCOc4ccc(Oc5c(-c6ccc(F)cc6)sc6cc(O)ccc56)cc4)CC3C2)C(C)(C)C)cc1 (stereo partly shown) [Compound 115]
> 100	CC(C)(C)[C@H](NC(=O)COCCOCCN1CCC(c2ccc(Oc3c(-c4ccc(F)cc4)sc4cc(O)ccc34)cc2)CC1)C(=O)N1C[C@H](O)C[C@H]1C(=O)NCc1ccc(Cl)cc1 [Compound 144]
> 100	Cc1ncsc1-c1ccc(CNC(=O)[C@@H]2CCCN2C(=O)[C@@H](NC(=O)COCCN2CCN(CCOc3ccc(Oc4c(-c5ccc(Br)cc5)sc5cc(O)ccc45)cc3)CC2)C(C)(C)C)cc1 [Compound 156]
> 100	Cc1ncsc1-c1ccc(CNC(=O)[C@@H]2C[C@@H](O)CN2C(=O)[C@H](c2cc(OCCN3CCN(CCOc4ccc(Oc5c(-c6ccc(Br)cc6)sc6cc(O)ccc56)cc4)CC3)no2)C(C)C)cc1 [Compound 163]
> 100	COc1ccc2c(Oc3ccc(OCCN4CCN(CCOCC(=O)N[C@H](C(=O)N5C[C@H](O)C[C@H]5C(=O)N[C@@H](C)c5ccc(-c6scnc6C)cc5)C(C)(C)C)CC4)cc3)c(-c3ccc(Br)cc3)sc2c1 [Compound 155]

Same assay, conditions: 10% FBS, 24 hours, Table 3 cereblon centric PROTACs, read-out: ER-α Luciferase IC50

IC50 [nM]	SMILES
0.22	COc1ccc(-c2sc3cc(O)ccc3c2Oc2ccc(OCCN3CCN(CCCNc4ccc5c(c4)CN(C4CCC(=O)NC4=O)C5=O)CC3)cc2)cc1 (stereo not shown) [Compound 180, 3-[5-[3-[4-[2-[4-[6-hydroxy-2-(4-methoxyphenyl)benzothiophen-3-yl]oxyphenoxy]ethyl]piperazin-1-yl]propylamino]-1-oxo-isoindolin-2-yl]piperidine-2,6-dione]
2.3	O=C1CCC(N2C(=O)c3ccc(NCCCN4CCN(CCOc5ccc(Oc6c(-c7ccc(Br)cc7)sc7cc(O)ccc67)cc5)CC4)cc3C2=O)C(=O)N1 (stereo not shown) [Compound 177, 5-[3-[4-[2-[4-[2-(4-bromophenyl)-6-hydroxy-benzothiophen-3-yl]oxyphenoxy]ethyl]piperazin-1-yl]propylamino]-2-(2,6-dioxo-3-piperidyl)isoindoline-1,3-dione]
13.5	O=C1CCC(N2Cc3nc(N4CCN(CC5CCN(c6ccc(Oc7c(-c8ccc(Br)cc8)sc8cc(O)ccc78)cc6F)CC5)CC4)ccc3C2=O)C(=O)N1 (stereo not shown) [Compound 239]
0.18	O=C1CCC(N2Cc3cc(N4CCN(CC5CCN(c6ccc(Oc7c(-c8ccc(O)cc8)sc8cc(O)ccc78)cc6)CC5)CC4)ccc3C2=O)C(=O)N1 (stereo not shown) [Compound 244, 3-[5-[4-[[1-[4-(6-hydroxy-2-(4-hydroxyphenyl)benzothiophen-3-yl]oxyphenyl]-4-piperidyl]methyl]piperazin-1-yl]-1-oxo-isoindolin-2-yl]piperidine-2,6-dione]
18.7	O=C1CCC(N2Cc3nc(N4CCN(CC5CCN(c6c(F)cc(Oc7c(-c8ccc(Br)cc8)sc8cc(O)ccc78)cc6F)CC5)CC4)ccc3C2=O)C(=O)N1 (stereo not shown) [Compound 242]
5.1	O=C1CCC(N2Cc3cc(N4CCC(CN5CCC(Oc6ccc(Oc7c(-c8ccc(C(F)(F)F)cc8)sc8cc(O)ccc78)cc6)CC5)CC4)ccc3C2=O)C(=O)N1 (stereo not shown) [Compound 187]
14.8	O=C1CCC(N2C(=O)c3ccc(N4CCN(CC5CCN(CCOc6ccc(Oc7c(-c8ccc(C(F)(F)F)cc8)sc8cc(O)ccc78)cc6)CC5)CC4)cc3C2=O)C(=O)N1 (stereo not shown) [Compound 202]

— patent publication US11384063B2, “Modulators of estrogen receptor proteolysis and associated methods of use” (Arvinas Operations, Inc., priority 2017, dated 2022)
